The source of these data is patent publication US9630922B2, “3-spiro-7-hydroxamic acid tetralins as HDAC inhibitors” (Forma Therapeutics, Inc., priority 2015, dated 2017).

This assay has as its target T1, HDAC6 (Homo sapiens, UniProt Q9UBN7).
T1 construct: Full length human recombinant HDAC6 protein was expressed in baculoviral system; made in house; host or cells: baculoviral system
T1 sequence (Q9UBN7 1-1215): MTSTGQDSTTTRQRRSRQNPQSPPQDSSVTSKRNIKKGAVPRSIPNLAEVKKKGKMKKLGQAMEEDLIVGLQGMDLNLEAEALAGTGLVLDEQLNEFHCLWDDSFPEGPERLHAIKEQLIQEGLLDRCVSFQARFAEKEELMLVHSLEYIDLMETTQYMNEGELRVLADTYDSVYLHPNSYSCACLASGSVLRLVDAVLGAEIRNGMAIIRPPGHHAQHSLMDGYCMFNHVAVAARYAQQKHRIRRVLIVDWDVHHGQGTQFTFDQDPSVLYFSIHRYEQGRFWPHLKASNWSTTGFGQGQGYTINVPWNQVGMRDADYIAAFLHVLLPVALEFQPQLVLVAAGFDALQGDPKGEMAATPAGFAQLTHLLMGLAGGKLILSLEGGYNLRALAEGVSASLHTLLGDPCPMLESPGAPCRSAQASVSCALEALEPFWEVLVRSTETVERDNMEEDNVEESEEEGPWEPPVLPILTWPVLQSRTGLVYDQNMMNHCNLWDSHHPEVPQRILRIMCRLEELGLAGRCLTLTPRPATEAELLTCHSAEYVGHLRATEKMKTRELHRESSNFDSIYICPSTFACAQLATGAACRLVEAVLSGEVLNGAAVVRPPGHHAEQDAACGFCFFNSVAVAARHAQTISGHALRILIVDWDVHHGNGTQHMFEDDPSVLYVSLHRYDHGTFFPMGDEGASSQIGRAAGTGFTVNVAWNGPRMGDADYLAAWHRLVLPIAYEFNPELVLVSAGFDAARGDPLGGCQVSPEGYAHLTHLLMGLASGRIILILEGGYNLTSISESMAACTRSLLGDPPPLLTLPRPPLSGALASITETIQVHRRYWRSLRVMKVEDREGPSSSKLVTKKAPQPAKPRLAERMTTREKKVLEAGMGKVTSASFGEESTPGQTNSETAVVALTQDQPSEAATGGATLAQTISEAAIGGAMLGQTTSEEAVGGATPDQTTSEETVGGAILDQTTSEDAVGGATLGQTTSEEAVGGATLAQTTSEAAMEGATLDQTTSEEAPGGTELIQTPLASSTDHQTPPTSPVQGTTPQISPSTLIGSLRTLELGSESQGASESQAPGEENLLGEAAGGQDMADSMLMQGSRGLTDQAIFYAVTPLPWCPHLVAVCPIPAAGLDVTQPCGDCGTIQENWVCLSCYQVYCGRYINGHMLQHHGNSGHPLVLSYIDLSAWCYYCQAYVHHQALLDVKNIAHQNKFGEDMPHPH
Put plainly: In vitro Histone Deacetylase Assay (enzymatic HDAC6 electrophoretic mobility shift assay). The format is biochemical. As to conditions: full length human recombinant HDAC6, 1 nM enzyme, 2 μM peptide substrate RHKK(Ac)-NH2, 25° C.; read-out: HDAC6 activity range. An outline of the steps: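 Full-length recombinant human HDAC6 (baculovirus-expressed, 1 nM) was incubated at 25 °C with 2 μM fluorescent RHKK(Ac)-NH2 peptide in HEPES pH 7.5, KCl, BSA, Triton X-100 and 1% DMSO, then SDS-quenched. Substrate and product were separated by microfluidic mobility shift, and IC50 came from 4-parameter fits of 12-point, 3-fold dilution curves.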
In general terms: A gel shift assay detects complexes by their altered migration in electrophoresis.

Take `O=C(NO)c1ccc2c(c1)CC[C@]1(CCN(C3CC3)C1=O)C2` [Compound I-109, (R)-1′-cyclopropyl-N-hydroxy-2′-oxo-3,4-dihydro-1H-spiro[naphthalene-2,3′-pyrrolidine]-6-carboxamide]: the IC50 was at most 100 nM. The same measure for `N#Cc1cccc(N2CC[C@]3(CCc4cc(C(=O)NO)ccc4C3)C2=O)c1` [Compound I-112, (R)-1′-(3-cyanophenyl)-N-hydroxy-2′-oxo-3,4-dihydro-1H-spiro[naphthalene-2,3′-pyrrolidine]-6-carboxamide]: at most 100 nM; for `Cn1cc(N2CC[C@@]3(CCc4cc(C(=O)NO)ccc4C3)C2=O)cn1` [Compound I-170, (S)-N-hydroxy-1′-(1-methyl-1H-pyrazol-4-yl)-2′-oxo-3,4-dihydro-1H-spiro[naphthalene-2,3-pyrrolidine]-6-carboxamide]: at most 100 nM. The same measure for `O=C(NO)c1ccc2c(c1)CC[C@@]1(CCN(c3ccccc3F)C1=O)C2` [Compound I-157, (S)-1′-(2-fluorophenyl)-N-hydroxy-2′-oxo-3,4-dihydro-1H-spiro[naphthalene-2,3′-pyrrolidine]-6-carboxamide]: at most 100 nM. Regarding `COc1ccc(CN2CC[C@@]3(CCc4cc(C(=O)NO)ccc4C3)C2=O)cc1` [Compound I-83, (S)-N-hydroxy-1′-(4-methoxybenzyl)-2′-oxo-3,4-dihydro-1H-spiro[naphthalene-2,3′-pyrrolidine]-6-carboxamide], the IC50 is at most 100 nM. The same measure for `O=C(NO)c1ccc2c(c1)CC[C@]1(CCN(c3cnc4ccccc4c3)C1=O)C2` [Compound I-95, (R)-N-hydroxy-2′-oxo-1′-(quinolin-3-yl)-3,4-dihydro-1H-spiro[naphthalene-2,3′-pyrrolidine]-6-carboxamide]: at most 100 nM.

Turning to `COCCn1c(N2CC[C@@]3(CCc4cc(C(=O)NO)ccc4C3)C2=O)nc2ccccc21` [Compound I-13, (S)-N-hydroxy-1′-(1-(2-methoxyethyl)-1H-benzo[d]imidazol-2-yl)-2′-oxo-3,4-dihydro-1H-spiro[naphthalene-2,3′-pyrrolidine]-6-carboxamide], the IC50 was at most 100 nM. As for `CC(C)c1ccc(N2CC[C@]3(CCc4cc(C(=O)NO)ccc4C3)C2=O)cn1` [Compound I-94, (R)-N-hydroxy-1′-(6-isopropylpyridin-3-yl)-2′-oxo-3,4-dihydro-1H-spiro[naphthalene-2,3′-pyrrolidine]-6-carboxamide], the figure is at most 100 nM.

Regarding `CC(C)CN1CCCC2(CCc3cc(C(=O)NO)ccc3C2)C1=O` (single isomer, unassigned) [Compound I-190], the IC50 is at most 100 nM.

Consider `O=C(NO)c1ccc2c(c1)CCC1(CCN(Cc3ccncc3)C1=O)S2(=O)=O` (stereo not drawn) [Compound I-242, N-hydroxy-2-oxo-1-(pyridin-4-ylmethyl)spiro[pyrrolidine-3,2′-thiochromane]-6′-carboxamide 1′,1′-dioxide], for which the IC50 was over 500 nM. The same measure for `O=C(NO)c1ccc2c(c1)CC[C@@]1(CCN(CC(F)(F)F)C1=O)C2` [Compound I-166, (S)-N-hydroxy-2′-oxo-1′-(2,2,2-trifluoroethyl)-3,4-dihydro-1H-spiro[naphthalene-2,3′-pyrrolidine]-6-carboxamide]: 100 to 500 nM; for `O=C(NO)c1ccc2c(c1)CCC1(CCN(Cc3nc4ccccc4[nH]3)C1)C2` (stereo not drawn) [Compound I-1, 1′-((1H-benzo[d]imidazol-2-yl)methyl)-N-hydroxy-3,4-dihydro-1H-spiro[naphthalene-2,3′-pyrrolidine]-6-carboxamide]: at most 100 nM. The same measure for `CCCN1CC[C@]2(CCc3cc(C(=O)NO)ccc3C2)C1=O` [Compound I-32, (R)-N-hydroxy-2′-oxo-1′-propyl-3,4-dihydro-1H-spiro[naphthalene-2,3′-pyrrolidine]-6-carboxamide]: at most 100 nM. In the case of `CC(C)N1CC[C@]2(CCc3cc(C(=O)NO)ccc3C2)C1=O` [Compound I-24, (R)-N-hydroxy-1′-isopropyl-2′-oxo-3,4-dihydro-1H-spiro[naphthalene-2,3′-pyrrolidine]-6-carboxamide], the IC50 was at most 100 nM.

Consider `O=C(NO)c1ccc2c(c1)CC[C@]1(CCN(C3CCC3)C1=O)C2` (single isomer, unassigned) [Compound I-171], for which the IC50 was at most 100 nM.

As for `CN1CCC[C@@]2(CCc3cc(C(=O)NO)ccc3C2)C1=O` (single isomer, unassigned) [Compound I-179], the IC50 is at most 100 nM.

For `Cc1ccccc1CN1CC[C@]2(CCc3cc(C(=O)NO)ccc3C2)C1=O` [Compound I-38, (R)-N-hydroxy-1′-(2-methylbenzyl)-2′-oxo-3,4-dihydro-1H-spiro[naphthalene-2,3′-pyrrolidine]-6-carboxamide], the IC50 is at most 100 nM. The same measure for `Cc1cncc(N2CC[C@]3(CCc4cc(C(=O)NO)ccc4C3)C2=O)c1` [Compound I-135, (R)-N-hydroxy-1′-(5-methylpyridin-3-yl)-2′-oxo-3,4-dihydro-1H-spiro[naphthalene-2,3′-pyrrolidine]-6-carboxamide]: at most 100 nM; for `O=C(NO)c1ccc2c(c1)CC[C@]1(CCN(Cc3ccc4ccccc4c3)C1=O)C2` [Compound I-58, (R)-N-hydroxy-1′-(naphthalen-2-ylmethyl)-2′-oxo-3,4-dihydro-1H-spiro[naphthalene-2,3′-pyrrolidine]-6-carboxamide]: at most 100 nM; for `O=C(NO)c1ccc2c(c1)CC[C@@]1(CCN(Cc3ccccc3C(F)(F)F)C1=O)C2` [Compound I-67, (S)-N-hydroxy-2′-oxo-1′-(2-(trifluoromethyl)benzyl)-3,4-dihydro-1H-spiro[naphthalene-2,3′-pyrrolidine]-6-carboxamide]: 100 to 500 nM.

Regarding `O=C(NO)c1ccc2c(c1)CC[C@@]1(CCCN(C3CC3)C1=O)C2` (single isomer, unassigned) [Compound I-193], the IC50 is at most 100 nM. As for `CC(C)N1CCC2(CCc3cc(C(=O)NO)ccc3O2)C1=O` (stereo not drawn) [Compound I-235, N-hydroxy-1′-isopropyl-2′-oxospiro[chromane-2,3′-pyrrolidine]-6-carboxamide], the figure is over 500 nM; as for `CN1CCC2(CCc3cc(C(=O)NO)ccc3O2)C1=O` (stereo not drawn) [Compound I-237, N-hydroxy-1′-methyl-2′-oxospiro[chromane-2,3′-pyrrolidine]-6-carboxamide], 100 to 500 nM.

For `COc1ccc(N2CC[C@@]3(CCc4cc(C(=O)NO)ccc4C3)C2=O)cn1` [Compound I-118, (S)-N-hydroxy-1′-(6-methoxypyridin-3-yl)-2′-oxo-3,4-dihydro-1H-spiro[naphthalene-2,3′-pyrrolidine]-6-carboxamide], the IC50 is at most 100 nM. As for `O=C(NO)c1ccc2c(c1)CC[C@@]1(CCN(Cc3ccccc3F)C1=O)C2` [Compound I-84, (S)-1′-(2-fluorobenzyl)-N-hydroxy-2′-oxo-3,4-dihydro-1H-spiro[naphthalene-2,3′-pyrrolidine]-6-carboxamide], the figure is at most 100 nM; as for `O=C(NO)c1ccc2c(c1)CCC1(CCN(Cc3ccncc3)C1=O)O2` (stereo not drawn) [Compound I-230, N-hydroxy-2′-oxo-1′-(pyridin-4-ylmethyl)spiro[chromane-2,3′-pyrrolidine]-6-carboxamide], over 500 nM. As for `O=C(NO)c1ccc2c(c1)CC[C@]1(CC(=O)N(c3ccncc3)C1)C2` [Compound I-228, (R)-N-hydroxy-5′-oxo-1′-(pyridin-4-yl)-3,4-dihydro-1H-spiro[naphthalene-2,3′-pyrrolidine]-6-carboxamide], the figure is at most 100 nM.
